Data as given in patent publication US20190269614A1, “CHEWABLE TABLET CONTAINING VITAMIN C SODIUM AND PREPARATION METHOD THEREOF” (GUANGXI SANPOTEL HEALTH INDUSTRY CO. LTD, priority 2016, published 2019).

Test: Lubricant trial: tabletting of vitamin C sodium chewable tablets with different lubricants
Format: physicochemical
Conditions: for Tabletting condition: granules with the named lubricant; for Friability / Hardness: tablets with the named lubricant
From the text: During tabletting, in order to increase granule fluidity, and ensure good filling and even distribution of tablet density, a certain amount of lubricant needs to be added to solve the problems of poor granule fluidity and sticking during tabletting. In the experiment of the present application, tabletting conditions when magnesium stearate, micro-powder silica gel, talcum powder, sodium dodecyl sulfate and mannitol were used as the lubricant were compared, and results are shown in Table 3.
From the test results in Table 3, it can be seen that when magnesium stearate, sodium dodecyl sulfate and mannitol are used, fluidity is good and sticking during tabletting is avoided, and prepared tablets have appropriate hardness and smooth and beautiful surfaces; when micro-powder silica gel is added, fluidity is good and sticking during tabletting is avoided, but the hardness of prepared tablets is low; and when talcum powder is added, fluidity is poor and sticking occurs during tabletting, and prepared tablets have large hardness. Therefore, magnesium stearate, sodium dodecyl sulfate and mannitol are selected as the lubricant in the present application.

Compound	Tabletting condition	Friability	Hardness
OC[C@@H](O)[C@@H](O)[C@H](O)[C@H](O)CO [mannitol]	non-sticking	0.39%	54 N
magnesium stearate	non-sticking	0.34%	49 N
CCCCCCCCCCCCOS(=O)(=O)[O-].[Na+] [sodium dodecyl sulfate]	non-sticking	0.42%	59 N
